Experimental data published in ChEMBL document CHEMBL1158210, “New Destruxins from the Entomopathogenic Fungus Aschersonia sp” (1996).
Converted amounts (≈) assume the structure as drawn. The source made the active and inactive calls. No cut-off for these calls is given here. Starred links: 1 amine or outer side, 2 acyl side, 3 side chain; linkers in the order of their positions; H or OH if unused. Non-standard residues stand in square brackets, D forms with d. Residues, ends and D or L forms follow the SMILES beside them. NMeI = CC[C@H](C)[C@H](NC)C(=O)O; X1 = C=CC[C@H](O[*:1])C(=O)[*:2]; Hica(2S) = CC(C)C[C@H](O)C(=O)O; NMeA = CN[C@@H](C)C(=O)O; βAla = NCCC(=O)O

How the values were obtained:
Drosophila melanogaster [1] = assay: Insecticidal activity against Drosophila melanogaster assessed as mortality at 200 ug/ml after 40 hrs; type: functional, organism-based
Drosophila melanogaster [2] = assay: Insecticidal activity against Drosophila melanogaster after 40 hrs; type: functional
Drosophila melanogaster [3] = assay: Insecticidal activity against Drosophila melanogaster assessed as mortality at 400 ug/ml after 48 hrs; type: functional, organism-based

| SMILES | Activity (Drosophila melanogaster [1]) | LC50 (Drosophila melanogaster [2]) | Activity (Drosophila melanogaster [3]) |
| --- | --- | --- | --- |
| C=CC[C@@H]1OC(=O)CCNC(=O)[C@H](C)N(C)C(=O)[C@H]([C@@H](C)CC)N(C)C(=O)[C@H]([C@@H](C)CC)NC(=O)[C@@H]2CCCN2C1=O [destruxin A4] (cyclo(I[NMeI][NMeA][βAla][X1]P)) | Active | 41 µg/mL (≈ 69.3 µM) | – |
| C=CCC1OC(=O)CCNC(=O)[C@H](C)N(C)C(=O)[C@H]([C@@H](C)CC)N(C)C(=O)[C@H]([C@@H](C)CC)NC(=O)[C@@H]2C(C)CCN2C1=O (stereo not given in full) [DESTRUXIN A5] | Active | 52 µg/mL (≈ 85.8 µM) | – |
| CC[C@H](C)[C@@H]1NC(=O)[C@@H]2CCCN2C(=O)[C@H](CC(C)C)OC(=O)CCNC(=O)[C@H](C)N(C)C(=O)[C@H]([C@@H](C)CC)N(C)C1=O (cyclo(I[NMeI][NMeA][βAla][Hica(2S)]P)) | – | – | inactive |
